In test [1] the target is T1, human β3 adrenergic receptor (Homo sapiens, UniProt P13945).
T1 construct: the full length human β3 gene is obtained from a human genomic library; expressed in transfected cells; host or cells: CHO (Chinese Hamster Ovary) cells, pcDNA3, geneticin selection
Kind of test: Test Example 1-A: human β3 adrenergic receptor agonist activity (cAMP EIA, transfected CHO cells, 24-well). The format is cell-based. Particulars: Table 1; maximum response to isoproterenol taken as 100%. The protocol:
(§1) Measurement of Human β3 Adrenergic Receptor Agonist Activity
The measurement of human β3 adrenergic receptor agonist activity is carried out using CHO (Chinese Hamster Ovary) cells transfected with pcDNA3 (manufactured by Invitrogen, Inc.) to which human β3 gene has been inserted. […] This human β3 cDNA fragment is used as a probe, and the full length human β3 gene is obtained from a human genomic library (manufactured by Clontech Laboratories, Inc.). The above cells are cultured in Ham's F-12 medium containing 10% fetal bovine serum and 400 μg/ml geneticin (manufactured by Invitrogen, Inc.). These cells are seeded on a 24-well plate to a concentration of 1×10^5 cells/well, and after being cultured for about 20 hours, the cells are left to stand in serum-free Ham's F-12 medium for 2 hours. A test compound is initially dissolved in DMSO, and then is diluted stepwise with Ham's F-12 containing 20 mmol/L HEPES, 1 mmol/L isobutylmethylxanthine, and 1 mmol/L ascorbic acid. The dilution is added to the cells. After the cells are cultured for 30 minutes, and then the medium is removed, followed by addition of 0.1 ml of 1 N NaOH to the cells. The cells are left to stand for 20 minutes, and then are added with 0.1 ml of 1 N acetic acid and are stirred. The resulting cell lysate is centrifuged, and then is subjected to quantification of cAMP with cAMP EIA kit (manufactured by Cayman Chemical Co.).

In test [2] the target is T1, human β3 adrenergic receptor. In words: Test Example 1-B: human β3 adrenergic receptor agonist activity (cAMP-Screen kit, transfected CHO cells, 96-well). The format is cell-based. The conditions noted are these: Table 2; maximum response to isoproterenol taken as 100%. The protocol: as §1
The measurement of human β3 adrenergic receptor agonist activity is carried out using CHO (Chinese Hamster Ovary) cells transfected with pcDNA3 (manufactured by Invitrogen, Inc.) to which human β3 gene has been inserted. […] This human β3 cDNA fragment is used as a probe, and the full length human β3 gene is obtained from a human genomic library (manufactured by Clontech Laboratories, Inc.). The above cells are cultured in Ham's F-12 medium containing 10% fetal bovine serum and 400 μg/ml geneticin (manufactured by Invitrogen, Inc.). These cells are seeded on a 96-well plate to a concentration of 2×10^4 cells/well, and after being cultured for about 20 hours, the cells are left to stand in 80 μL of serum-free Ham's F-12 medium for 15 minutes. A test compound is initially dissolved in DMSO, and then is diluted stepwise with Ham's F-12 containing 100 mmol/L HEPES and 1 mmol/L isobutylmethylxanthine. 20 μL of the dilution is added to the cells. After the cells are cultured for 30 minutes, the medium is removed. 0.3. ml of the Assay/lysis Buffer included in cAMP-Screen kit (manufactured by Applied Biosystems, Inc.) is added to the cells, and the cells are incubated at 37° C. for 30 minutes. The resulting cell lysate is subjected to quantification of cAMP with the cAMP-Screen kit.

Test [3] deals with urinary bladder smooth muscle isolated from common marmoset. In words: Test Example 7: relaxant activity on urinary bladder smooth muscle isolated from common marmoset. Particulars: KCl 40 mmol/L contraction, papaverine 10^−4 mol/L relaxation taken as 100%. The protocol: Common marmosets are (CLEA Japan, Inc.) exsanguinated to death, and then are subjected to laparotomy to isolate the urinary bladder therefrom. […] The strips are applied a resting tension of 1 g, and are equilibrated for at least 30 minutes. After the resting tension of the strips have been equilibrated, KCl at a final concentration of 40 mmol/L is repeatedly added to the organ bath, and it is confirmed that contraction due to KCl becomes almost constant. […] When the relaxation response at the maximum concentration of the test compound is completed, papaverine at a final concentration of 10^−4 mol/L is added, and the maximum relaxation response of each strip is determined.

T1 sequence (P13945 whole entry): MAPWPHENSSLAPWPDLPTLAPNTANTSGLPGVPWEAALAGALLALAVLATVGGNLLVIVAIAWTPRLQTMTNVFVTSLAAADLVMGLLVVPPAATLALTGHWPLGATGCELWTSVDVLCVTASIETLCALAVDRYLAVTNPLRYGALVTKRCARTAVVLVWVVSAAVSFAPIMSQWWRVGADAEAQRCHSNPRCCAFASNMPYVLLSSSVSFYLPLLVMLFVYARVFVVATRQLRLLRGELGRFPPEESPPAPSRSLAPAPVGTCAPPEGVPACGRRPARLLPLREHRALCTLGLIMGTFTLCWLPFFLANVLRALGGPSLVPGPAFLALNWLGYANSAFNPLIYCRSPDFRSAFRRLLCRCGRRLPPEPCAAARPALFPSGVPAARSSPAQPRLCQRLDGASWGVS

As for `CC(C)NCC(O)c1ccc(O)c(O)c1` (stereo not shown) [Isoproterenol, reference compound], the “β3 receptor I.A.” value in test [1] and in test [2] was 100% each time. Further, in test [3] (10^−4 M), the “relaxant activity (%) 10^−4 M” value came out at 62.8%. In addition, the “relaxant activity (%) 10^−5 M” value in test [3] (10^−5 M) was determined as 58.0%.

Source of the values: patent US8008506B2, “Indazole compounds” (priority 2008, dated 2011).
